Measurements taken from patent US20070026090A1, “Treatment and prevention of inflammatory disease and mitochondrial dysfunction with high dose selenium” (priority 2003, published 2007).
“Also recorded” adds a separate entry of the source.

Tests used:
[1] = test system: myeloperoxidase (MPO) activity; experiment: Tissue inflammation: myeloperoxidase activity in colon tissue; format: in vivo, rat; settings: supplemented rats, 24 h after TNBS; unsupplemented rats greater than 30-fold
Protocol: Tissue inflammation-Myeloperoxidase activity: Colonic tissue samples (approximately 100-120 mg) were collected 4 cm proximal to the anus. Each tissue sample was homogenized in a solution containing 0.5% hexa-decyl-trimethyl-ammonium bromide (HTAB) (Sigma-Aldrich Corp, St. Louis, Mo.) buffer (0.5% HTAB in 50 mM phosphate buffer, pH 6.0). Tissue samples were minced in a test tube containing 1 ml of HTAB buffer on ice and homogenized with a Polytron tissue homogenizer (Brinkmann Instruments, Inc, Westbury N.Y., USA). The pooled homogenates and washes were sonicated in water for 20 seconds. After three cycles of freeze-thawing, the sonicated samples were centrifuged in cold for 15 min. at 40,000×g. Myeloperoxidase activity (MPO) was assayed in the supernatant as described by Krawisz (Krawisz et al., 1984) after addition of O-dianizidine-HCl (Sigma-Aldrich Corp, St Louis, Mo.) and 0.15% (v/v) H2O2 as a substrate for the MPO. The rate of change in absorbance was measured spectrophotometrically at 460 nm, and is expressed as the amount of enzyme necessary to produce a change in absorbance of 1.0 unit per minute (1 unit) per gram wet weight tissue.

[2] = test system: mitochondrial DNA (D-loop region); experiment: Mitochondrial DNA analysis in the colon (D-loop PCR); format: in vivo, rat
Protocol: Mitochondrial DNA analysis in the colon: Tissue content of mitochondrial DNA was determined using specific primers for the D-loop region in the mitochondrial DNA. Mitochondrial colon tissue genomic DNA, was prepared using the Promega Wizard Genomic DNA Purification Kit (Promega Corp, Madison, Wis.). Mitochondrial DNA was amplified by the PCR reaction: Twenty cycles were used for the amplification with 25 ng total tissue DNA as template. Saturation in intensity of PCR products was observed after 24 cycles.
Primers: Left (sense) 5′-[…]-3′ (SEQ ID NO:1), corresponding to nucleotides 468 to 489 of rat mitochondrial D-loop region DNA (GenBank Accession No. X52757.1).
Right (antisense) 5′-[…]-3′ (SEQ ID NO:2) corresponding to nucleotides 988 to 967 of rat mitochondrial D-loop DNA (GenBank Accession No. X52757.1).
The expected PCR product was 520 bp. Actual PCR product was approximately 520 bp, measured on 1.25% agarose gel in TAE containing ethidium bromide.

[3] = test system: glutathione peroxidase (GPx); experiment: GPx activity in macrophage cell extract; format: cell-based, murine; settings: 24 h; range 0.5-30 μM (FIG. 8B)
Protocol: (§1) Cell culture: Murine J774.2 macrophages (kindly provided by Prof. Dov Zipori from the Weizmann Institute of Science) were grown in RPMI medium supplemented with 10% (w/v) fetal calf serum, penicillin (100 U/ml), streptomycin (100 μg/ml) and 1× glutamine at 37° C. in a humidified atmosphere consisting of 95% air and 5% CO2. Experiments were performed on cells at 60% confluence.
GPx activity: GPx activity was determined by following the rate of NADPH oxidation at 340 nm in the presence of the substrates: 3 mM glutathione (GSH), 1.2 U glutathione reductase (GR) and 1.5% H2O2, using a microfluorometer plate reader (GENios, Tecan, Austria). The reaction contained 500 μl Tris reaction buffer (100 mM Tris Hcl, 300 mM Kcl, 5 mM EDTA, 1 mM NaN3, pH 7.0), substrates and 100 μl cell extract. Macrophages were treated with selenium for 24 h. Wells were washed twice with PBS, cells permeabilized, and scraped using 200 μl 0.2% Triton X-100. The reaction was recorded every minute for 25 minutes. Slopes were calculated and the results were adjusted according to the protein amount calculated with the Bradford reagent.

Sp1 = Sp1 binding activity of nuclear extracts of treated macrophages (EMSA); format: cell-based, murine
Protocol: as §1
Nuclear extracts: Nuclear Extracts were prepared using a slight modification of the method of Dignam et al (23). Treated cells were washed with cold PBS, scraped and centrifuged. Hypotonic buffer (1 ml, 20 mM HEPES pH 7.0, 10 mM KCl, 1 mM mGCl2, 0.5 mM DTT, 0.1% Triton X-100, 20% glycerol, 2 mM PMSP, 1 mg/ml Aprotonin and Leupeptin) was added to the cell pellets, the pellets were disrupted by pipetting, and centrifuged 3000 RPM for 5 min. The pellets were re-suspended in 100 μl cold extraction buffer (20 mM HEPES pH 7.0, 10 mM KCl, 1 mM mGCl2, 0.5 mM DTT, 0.1% Triton X-100, 20% glycerol, 2 mM PMSF, 1 mg/ml Aprotonin and Leupeptin, 420 mM NaCl). The samples were rotated for 20 min at 4° C., centrifuged 15,000 RPM for 10 min, and supernatants collected. Protein content was measured using Bradford reagent. Samples were stored frozen at minus 70° C.
Electromobility shift assay (EMSA)—Gel shift assays were performed according to the gel shift assay protocol from Promega Corp. (San Luis Obispo, Calif.). A 22-mer double-stranded NF-κB consensus oligonucleotide 5′-[…]-3′ (SEQ ID NO:3), and Sp1 consensus oligonucleotide 5′-[…]-3(SEQ ID NO:4), were labeled with 32P. For each reaction, 2 μg of nuclear extract were incubated with 2 μl of 5× binding buffer for 5 min., 1 μl of the ^32P-labeled oligonucleotide was added at room temperature for 20 min., the samples were prepared by adding 1 μl of dye free loading buffer, and separated using 6% non-denaturing acrylamide gel electrophoresis. The gel was dried and exposed to a phosphoimaging screen for 18 hours and then visualized with a phosphoimager. For specificity, 1 μl of unlabeled consensus oligonucleotide was used to compete with the labeled probe.

J774.2 macrophages = experiment: Type of cell death (annexin V-FITC / PI); format: cell-based, murine; settings: 10 μM, 24 hours; annexin V-FITC and PI
Protocol: Experiments were performed on cells at 60% confluence.
Determination of type of cell death: Type of cell death was determined by dual staining with annexin V-FITC (Santa Cruz Biotechnology, Santa Cruz Calif., USA) and PI, and flow cytometric analysis. Cells were treated with 10 μM selenite for 24 h then collected and re-suspended in binding buffer (10 mM HEPES/NaOH, pH 7.4, 140 mM NaCl, 2.5 mM CaCl2). 2.5 μg/ml annexin V-FITC was added and cells were incubated for 30 min at room temperature, then 0.25 μg/ml PI was added and samples were analyzed by flow cytometry (FACSort, Becton Dickenson and. Co., San Jose, Calif. USA).

[4] = test system: myocarditic Coxsackie virus B3; settings: 5 ppm in the water; cited from earlier work
[5] = in vivo; cited from earlier work

## [Se] [selenium]
[1]
  myeloperoxidase elevation following hapten administration, compared to uninduced controls: approximately 5 fold
[2]; 24 h after TNBS, supplemented vs unsupplemented (FIG. 6)
  mitochondrial DNA in colon tissue, colitis-induced rats: intact mitochondrial DNA; also recorded: protects against the loss
[2]; TNBS−, Se suppl+ (FIG. 6)
  mitochondrial DNA in colon tissue, uninduced rats: No change
[3]
  concentration of maximum stimulation of GPx activity: 0.5 µM
Sp1; 72 hours, then 6 hours LPS + INFγ, range 0.5-5 μM (FIG. 13A lower panel)
  lowest concentration with dramatic effect on Sp-1 binding, activated macrophages: 5 µM
Sp1; 72 hours, unactivated (FIG. 13A upper panel)
  lowest concentration with dramatic effect on Sp-1 binding, resting macrophages: 5 µM
Sp1; concentration-dependent (FIG. 13A)
  binding of Sp-1, activated macrophages: dramatically reduced
J774.2 macrophages
  character of cell death: cell death with necrotic characteristics
[4]
  inflammatory lesions and necrosis: no effect
[5]
  average lifetime daily intake with biochemical and clinical symptoms: greater than 1000 microgram
